Each structure is given as a SMILES string.

As a reminder, the IC50 is the midpoint of a concentration-inhibition curve. Low values mean greater potency in that assay, high ones weaker potency in that assay.

The target of the assay is C-C chemokine receptor type 5 (Homo sapiens, UniProt P51681). In words: Displacement of [125I]human-MIP1-alpha from human CCR5 receptor expressed in CHO cells by SPA. Format: cell-based. In general terms: In a radioligand displacement assay an active substance lowers the binding of a labelled ligand.
Chain of C-C chemokine receptor type 5 (P51681 whole entry): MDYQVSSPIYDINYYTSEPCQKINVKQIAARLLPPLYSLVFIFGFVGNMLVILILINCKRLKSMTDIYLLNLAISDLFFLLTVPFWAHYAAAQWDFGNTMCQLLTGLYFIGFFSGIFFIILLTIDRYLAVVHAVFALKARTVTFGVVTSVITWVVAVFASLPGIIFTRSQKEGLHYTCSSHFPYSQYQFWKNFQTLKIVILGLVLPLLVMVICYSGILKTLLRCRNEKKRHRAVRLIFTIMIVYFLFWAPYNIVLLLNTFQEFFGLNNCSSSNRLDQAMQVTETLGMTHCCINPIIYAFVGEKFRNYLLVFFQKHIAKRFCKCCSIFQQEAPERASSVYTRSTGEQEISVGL
`COC1C(=O)OC(C)c2c(O)c(O)c3c(c21)CCC(C)(C)O3` (stereo not drawn) had an IC50 of 154 µM.

For `CC1OC(=O)c2c3c(c(O)c(O)c21)OC(C)(C)CC3` (stereo not drawn) [FUSCINARIN], the IC50 stood at 80 µM. In turn, `CC1OC(=O)C=C2C3=C(OC(C)(C)CC3)C(=O)C(O)=C21` (stereo not drawn) [FUSCIN] yielded an IC50 of 21 µM.

The record behind these values is ChEMBL document CHEMBL1146578, “10-Methoxydihydrofuscin, fuscinarin, and fuscin, novel antagonists of the human CCR5 receptor from Oidiodendron griseum” (J Nat Prod, 2003).
